Measurements as given in ChEMBL document CHEMBL2177086, “Design and synthesis of a stable oxidized phospholipid mimic with specific binding recognition for macrophage scavenger receptors” (J Med Chem, 2012).
Calls of active or inactive are those of the source. No cut-off for these calls is given here.

Key:
[1] = biological target: Platelet glycoprotein 4 (Mus musculus) (UniProt Q08857); test: Displacement of Bt-CuOxLDL from CD36 receptor in mouse J774 cells after 2 hrs by chemiluminescent assay; assay type: cell-based
[2] = biological target: Platelet glycoprotein 4 (Homo sapiens) (UniProt P16671); test: Displacement of CuOxLDL from CD36 receptor expressed in CHO cells; assay type: cell-based
[3] = Binding affinity to monoclonal antibody E06 by solid phase chemiluminescent immunoassay
[4] = system: J774; test: Cytotoxicity against mouse J774 macrophages assessed as effect on cell number up to 72 hrs; assay type: cell-based; conditions: j774, 72 h
[5] = system: J774; test: Cytotoxicity against mouse J774 macrophages assessed as effect on protein content up to 72 hrs; assay type: cell-based; conditions: j774, 72 h

Sequence of Platelet glycoprotein 4 (Mus musculus) (Q08857 whole entry): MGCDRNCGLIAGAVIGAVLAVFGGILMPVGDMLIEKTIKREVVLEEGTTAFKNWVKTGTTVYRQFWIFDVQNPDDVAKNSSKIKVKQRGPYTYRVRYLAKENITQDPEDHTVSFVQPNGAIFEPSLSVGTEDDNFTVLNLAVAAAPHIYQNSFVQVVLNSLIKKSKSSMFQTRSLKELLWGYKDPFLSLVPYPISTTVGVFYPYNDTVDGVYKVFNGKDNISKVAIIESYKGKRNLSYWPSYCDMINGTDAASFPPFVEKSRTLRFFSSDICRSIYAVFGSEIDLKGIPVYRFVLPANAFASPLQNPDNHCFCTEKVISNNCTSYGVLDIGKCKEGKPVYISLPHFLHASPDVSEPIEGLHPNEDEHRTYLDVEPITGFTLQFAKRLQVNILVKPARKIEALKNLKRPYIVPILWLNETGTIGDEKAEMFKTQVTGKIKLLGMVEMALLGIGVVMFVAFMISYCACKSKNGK
Sequence of Platelet glycoprotein 4 (Homo sapiens) (P16671 whole entry): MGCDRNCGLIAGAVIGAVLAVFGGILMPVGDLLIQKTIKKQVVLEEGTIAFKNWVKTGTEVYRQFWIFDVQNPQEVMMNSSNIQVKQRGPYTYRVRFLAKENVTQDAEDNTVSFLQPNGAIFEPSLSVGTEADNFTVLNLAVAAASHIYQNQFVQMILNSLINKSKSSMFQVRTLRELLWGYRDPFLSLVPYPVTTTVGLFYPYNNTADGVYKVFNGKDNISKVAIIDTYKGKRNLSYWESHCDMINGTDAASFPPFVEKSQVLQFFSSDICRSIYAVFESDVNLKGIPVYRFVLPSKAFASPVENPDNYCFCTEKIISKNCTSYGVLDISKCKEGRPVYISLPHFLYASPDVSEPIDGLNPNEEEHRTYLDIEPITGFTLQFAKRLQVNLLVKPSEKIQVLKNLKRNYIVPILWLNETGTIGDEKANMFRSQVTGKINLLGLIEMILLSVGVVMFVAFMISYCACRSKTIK

| inhibition [1] | Activity [2] | Activity [3] | Activity [1] [%] | Compound | Activity [4] | Activity [5] |
| --- | --- | --- | --- | --- | --- | --- |
| inactive | – | – | – | H-TGTKGG-OH | – | – |
| – | Active | Active | > 99 | CCCCCCCCCCCCCCCC(=O)OC[C@H](COP(=O)([O-])OCC[N+](C)(C)C)OC(=O)CCCCN(C)CCCC[C@H](NC(=O)[C@@H](NC(=O)CNC(=O)[C@@H](NC(C)=O)[C@@H](C)O)[C@@H](C)O)C(=O)NCC(=O)NCC(=O)O | Non-toxic | Non-toxic |
